The values that follow come from ChEMBL document CHEMBL5584215, “Biological evaluation of indolactams for in vitro bryostatin 1-like activity” (Bioorg Med Chem Lett, 2024).

Active and inactive are the calls of the source. The rule behind the calls is not given here. A value given as a limit tells only on which side of the number the result lay.

Experiment [1] deals with U-937. In words: Induction of cell attachment in human U-937 cells at 1000 nM incubated for 72 hrs relative to control. It counts as functional.
Experiment [2] deals with LNCaP. In words: Growth inhibition of human LNCaP cells at 5 to 1500 nM incubated for 72 hrs. It counts as functional, cell-based. To be noted: dose 5-1500 nM.
Experiment [3] has as its system U-937. In words: Induction of cell attachment in human U-937 cells at 1 to 100 nM incubated for 72 hrs. It is filed as functional, cell-based. The note with it: dose 1-100 nM.
Experiment [4] concerns the target Protein kinase C delta type (Homo sapiens, UniProt Q05655). In words: Binding affinity to PKCdelta (unknown origin) assessed as inhibition constant.
The test system of experiment [5] is U-937. As to the kind of experiment: Induction of cell attachment in human U-937 cells at 100 nM incubated for 72 hrs. It is filed as functional, cell-based.
The test system of experiment [6] is U-937. In words: Induction of cell attachment in human U-937 cells at 1 to 100 nM incubated for 72 hrs relative to control. It is filed as functional. The note with it: dose 1-100 nM.
Experiment [7] has as its system U-937. In words: Induction of cell attachment in human U-937 cells at more than 10 nM incubated for 72 hrs relative to control. It is filed as functional.
The subject of experiment [8] is U-937. In words: Growth inhibition of human U-937 cells assessed as reduction in total cell number at 100 nM incubated for 72 hrs. It is filed as functional. The note with it: read-out: GI.
In experiment [9] the test system is U-937. As to the kind of experiment: Induction of cell attachment in human U-937 cells at 100 nM incubated for 72 hrs relative to control. It is filed as functional.
Experiment [10] has as its system U-937. In words: Growth inhibition of human U-937 cells assessed as reduction in total cell number at 1000 nM incubated for 72 hrs. It is filed as functional, cell-based.
The test system of experiment [11] is LNCaP. As to the kind of experiment: Growth inhibition of human LNCaP cells at 1.5 uM incubated for 72 hrs. It is filed as functional, cell-based.
In experiment [12] the test system is U-937. In words: Growth inhibition of human U-937 cells assessed as reduction in total cell number at 1 to 10 nM incubated for 72 hrs. It is filed as functional, cell-based. To be noted: dose 1-10 nM.
Experiment [13] relates to U-937. In words: Growth inhibition of human U-937 cells assessed as reduction in total cell number at 1 nM incubated for 72 hrs. It counts as functional. To be noted: read-out: GI.
For experiment [14], the system named is LNCaP. As to the kind of experiment: Growth inhibition of human LNCaP cells at < 10 nM incubated for 72 hrs. It is filed as functional, cell-based.
Experiment [15] deals with U-937. In words: Induction of cell attachment in human U-937 cells at 1 nM incubated for 72 hrs relative to control. It is filed as functional.

Chain of Protein kinase C delta type (Q05655 whole entry): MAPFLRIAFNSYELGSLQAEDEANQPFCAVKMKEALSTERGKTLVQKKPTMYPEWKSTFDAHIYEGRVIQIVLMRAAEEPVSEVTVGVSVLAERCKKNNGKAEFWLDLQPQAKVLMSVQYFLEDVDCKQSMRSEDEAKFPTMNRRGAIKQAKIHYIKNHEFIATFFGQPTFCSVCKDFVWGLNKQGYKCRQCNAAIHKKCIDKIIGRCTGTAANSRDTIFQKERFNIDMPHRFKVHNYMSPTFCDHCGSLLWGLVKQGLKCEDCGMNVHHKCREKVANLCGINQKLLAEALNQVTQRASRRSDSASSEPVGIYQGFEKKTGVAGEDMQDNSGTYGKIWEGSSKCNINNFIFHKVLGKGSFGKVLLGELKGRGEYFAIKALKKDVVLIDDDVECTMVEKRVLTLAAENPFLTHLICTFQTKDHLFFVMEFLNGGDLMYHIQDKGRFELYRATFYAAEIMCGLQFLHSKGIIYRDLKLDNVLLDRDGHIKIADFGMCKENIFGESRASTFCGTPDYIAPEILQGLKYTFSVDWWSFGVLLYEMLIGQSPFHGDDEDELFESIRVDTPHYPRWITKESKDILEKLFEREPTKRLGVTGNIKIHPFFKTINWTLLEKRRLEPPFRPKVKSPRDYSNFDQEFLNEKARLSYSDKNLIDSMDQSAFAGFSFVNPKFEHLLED

For `CC(C)[C@H]1C(=O)N[C@H](CO)Cc2cn(C(C)C)c3cccc(c23)N1C`, the results for the Activity in experiment [1] and in experiment [6] were 6.5% and below 2%, respectively. Besides, the “growth inhibition (GI)” value in experiment [2] is “Active”. For the same compound, in experiment [3], the outcome was inactive. Further, the inhibition constant (Ki) (as a rule, a dissociation constant, usually derived from enzyme kinetics or from competition with a known ligand) in experiment [4] turned out to be 0.032 µM. For the same compound, the result in experiment [5] was Active.
`C=C[C@@](C)(CCC=C(C)C)c1ccc2c3c(c[nH]c13)C[C@@H](CO)NC(=O)[C@H](C(C)C)N2C`: the Activity in experiment [7] is above 60%.
For `CC(=O)n1cc2c3c(cccc31)N(C)[C@@H](C(C)C)C(=O)N[C@H](CO)C2`, the “growth inhibition (GI)” value in [2] is “Active”. Further, the result in experiment [3] was inactive. In addition, the Ki in [4] turned out to be 0.094 µM. Besides, in experiment [5], the outcome was Active. This compound also returned an Activity in experiment [6] below 2%.
For `CC(C)[C@H]1C(=O)N[C@H](CO)Cc2c[nH]c3cccc(c23)N1C` [INDOLACTUM], in [8], the inhibition of growth at 0.1 µM came to 25.7%. Besides, the Activity in experiment [1] turned out to be 70.3%; in [9] it was 44.2%.
Compound `CCC/C=C/C=C/C(=O)O[C@H]1/C(=C/C(=O)OC)C[C@H]2C[C@H]([C@@H](C)O)OC(=O)C[C@H](O)C[C@@H]3C[C@H](OC(C)=O)C(C)(C)[C@](O)(C[C@@H]4C/C(=C/C(=O)OC)C[C@H](/C=C/C(C)(C)[C@]1(O)O2)O4)O3` [BRYOSTATIN 1] came in with an Activity in experiment [1] of 1.8%. For the same compound, in experiment [10], the “growth inhibition (GI)” value is “Active”. Besides, the “growth inhibition (GI)” value in experiment [11] and in [12] was “inactive” in each case.
On to `CCCCCCCCCCCCCC(=O)O[C@H]1[C@H](C)[C@]2(O)[C@H](C=C(CO)C[C@@]3(O)C(=O)C(C)=C[C@H]23)[C@H]2C(C)(C)[C@@]12OC(C)=O`, for which, in [13], the inhibition of growth at 0.001 µM was 21.5%. In [14], the “growth inhibition (GI)” value was “Active”. The Activity in experiment [15] is listed as 85.4%.
In experiment [7], `C=CC(C)(C)c1ccc2c3c(c[nH]c13)C[C@@H](CO)NC(=O)[C@H](C(C)C)N2C` [PENDOLMYCIN] came in with an Activity above 60%.
